Our source for the KD and K1/2 values is PMC3905878 (2013).

For test [1], the system named is T. tengcongensis preQ1-I riboswitch 33-mer (RNA, riboswitch) CUGGGUCGCAGUAACCCCAGUUAACAAAACAAG
As to the kind of experiment: ITC. The settings on record: 100 mM NaCl, 6 mM MgCl2; 50 mM HEPES-NaOH pH 7.0, 25 °C; Table S3 prints 7.4 ± 2.3.

The subject of test [2] is Bsu A27C mutant (RNA, riboswitch, 5-aminoallyl-uridine at 13) AGAGGUUCUAGCUACACCCUCUAUAACAAACUAAGG
The experiment in a line: smFRET, fraction of high-FRET state. The settings on record: 100 mM KCl, 1 mM MgCl2; 50 mM Tris-HCl pH 7.5, room temperature; apparent.

The test system of test [3] is Tte preQ1 riboswitch (wild-type, smFRET construct) (RNA, riboswitch, 5-aminoallyl-uridine at 12) CUGGGUCGCAGUAACCCCAGUUAACAAAACAAGGG
The experiment in a line: smFRET, fraction of high-FRET state. The following applies: 100 mM KCl, 1 mM MgCl2; 50 mM Tris-HCl pH 7.5, room temperature; apparent; high-FRET saturates near 50%.

Test [4] relates to Bsu preQ1 riboswitch (wild-type, smFRET construct) (RNA, riboswitch, 5-aminoallyl-uridine at 13) AGAGGUUCUAGCUACACCCUCUAUAAAAAACUAAGG
As to the kind of experiment: smFRET, fraction of high-FRET state. The settings on record: 100 mM KCl, 1 mM MgCl2; 50 mM Tris-HCl pH 7.5, room temperature; apparent; high-FRET saturates near 50%.

The structures appear in SMILES notation.

The term KD denotes the free concentration of one partner at which half of the binding sites on the other are occupied at equilibrium, for simple one-to-one binding. A high value points to lower affinity. In turn, `NCc1c[nH]c2nc(N)[nH]c(=O)c12` returned a KD in test [1] of 7.3 ± 2.3 nM. The K1/2 is 11 µM in test [2], 69 ± 22 nM in test [3] and 134 ± 45 nM in test [4].
